# Source: patent US4530791A, “β-Lactam antibiotics” (Kowa Co., Ltd., priority 1979, dated 1985)
# Like-named read-outs stand apart in the source and are kept apart here.
# How the values were obtained:
# [1] = tested on: Bacillus subtilis 6633; test: Antibacterial spectrum (minimum inhibitory concentration); format: cell-based
# Excerpt: (§1) The antibacterial spectra against various microorganisms are shown in Table 2 in comparison with those of aminobenzyl penicillin (AB-Pc) and cefoxitin (CFX).
# [2] = tested on: Citrobacter 1 (PC ase); test: as above; format: cell-based
# Excerpt: as §1
# [3] = tested on: Citrobacter 24 (CS ase); test: as above; format: cell-based
# Excerpt: as §1
# [4] = tested on: Enterobacter aerogenes 972; test: as above; format: cell-based; conditions: Klebsiella aerogenes
# Excerpt: as §1
# [5] = tested on: Enterobacter cloacae 977; test: as above; format: cell-based
# Excerpt: as §1
# [6] = tested on: Escherichia coli EC-1 (PC ase I); test: as above; format: cell-based
# Excerpt: as §1
# [7] = tested on: Escherichia coli EC-59 (PC ase II); test: as above; format: cell-based
# Excerpt: as §1
# [8] = tested on: Escherichia coli EC-68 (PC ase IV); test: as above; format: cell-based
# Excerpt: as §1
# [9] = tested on: Excherichia coli NIHJ JC-2; test: as above; format: cell-based
# Excerpt: as §1
# [10] = tested on: Hafnia alvei 978; test: as above; format: cell-based
# Excerpt: as §1
# [11] = tested on: Klebsiella 25 (PC ase); test: as above; format: cell-based
# Excerpt: as §1
# [12] = tested on: Klebsiella 32 (CS ase); test: as above; format: cell-based
# Excerpt: as §1
# [13] = tested on: Klebsiella pneumoniae 602; test: as above; format: cell-based
# Excerpt: as §1
# [14] = tested on: Proteus inconstans Km115; test: as above; format: cell-based; conditions: Providencia alcalifaciens
# Excerpt: as §1
# [15] = tested on: Proteus morganii 3168; test: as above; format: cell-based; conditions: Morganella morganii
# Excerpt: as §1
# [16] = tested on: Proteus rettgari 13501; test: as above; format: cell-based
# Excerpt: as §1
# [17] = tested on: Proteus vulgaris 874; test: as above; format: cell-based
# Excerpt: as §1
# [18] = tested on: Pseudomonas aeruginosa 10490; test: as above; format: cell-based
# Excerpt: as §1
# [19] = tested on: Pseudomonas aeruginosa A-3; test: as above; format: cell-based; conditions: A3
# Excerpt: as §1
# [20] = tested on: Pseudomonas putida 5121; test: as above; format: cell-based
# Excerpt: as §1
# [21] = tested on: Serratia marcescens NHL; test: as above; format: cell-based
# Excerpt: as §1
# [22] = tested on: Staphylococcus aureus 209P JC-1; test: as above; format: cell-based
# Excerpt: as §1
# [23] = tested on: Staphylococcus epidermidis 1228; test: as above; format: cell-based
# Excerpt: as §1
# [24] = Stability: half-life period at different values of pH (ultraviolet absorption spectroscopy); format: physicochemical; conditions: read-out: half-life period t1/2 (converted)
# Excerpt: (11) Stability: The half-life period at different values of pH are as follows: […]
# pH 4.0-7.0: Mcllvaine's buffer solution (sodium phosphate-citric acid) pH 10.0: 0.1M sodium carbonate-sodium hydrogen carbonate buffer solution […]
# Ultraviolet absorption spectroscopy
# (9) Stability: The half-life period at different values of pH are as follows:
# The solvent and measurement are the same as in the substance KA-6643-A.
# [25] = Solubility in solvent; format: physicochemical
# [26] = tested on: Citrobacter 24 (CS ase); test: Antibacterial activity-improving action against β-lactam-resistant bacteria (disc, inhibiting zone); format: cell-based; conditions: Medium including Citrobacter 24; AB-Pc 1 mg/ml, KA-6643-A or -B 10 γ/ml, alone or combined; 8 mm disc, 37° C., 18 hours
# Protocol: (§2) In the Penassay agar (12 g of which was dissolved in 500 ml of distilled water, Kyoei Pharm. Co., Ltd.) were inoculated Escherichia coli EC-1 (PC ase) and citrobacter 24 (CS ase) which were β-lactamase-producing organisms, and 10 ml of the inoculated medium was flowed on a Petri dish of 9 cm in diameter and solidified to give a test medium.
# (§3) In this agar medium were placed pulp discs of 8 mm in diameter into which was introduced with […] of aqueous solutions of antibiotics, respectively, followed by culturing at 37° C. for 18 hours and then measuring the diameter of an inhibiting zone around each disc.
# [27] = tested on: Escherichia coli EC-1 (PC ase); test: as above; format: cell-based; conditions: Medium including E. coli EC-1; AB-Pc 1 mg/ml, KA-6643-A or -B 10 γ/ml, alone or combined; 8 mm disc, 37° C., 18 hours
# Protocol: as §2, §3
# [28] = target: β-lactamase enzyme penicillin amidohydrolase EC 3.5.2.6; test: β-Lactamase-inhibitory activity; format: biochemical; conditions: method of C. Reading and M. Cole
# Protocol: When using as β-lactamase enzyme penicillin amidohydrolase EC 3.5.2.6 (Tokyo Chem. Syn. Co., Ltd.) derived from bacteria belonging to the genus Bacillus, the I50 value of the substance KA-6643-A was 0.5 ng/ml and that of the substance KA-6643-B was 12.8 ng/ml.
# The I50 value was measured in accordance with the method of C. Reading and M. Cole [Antimicr. Agents and Chemoth. 11, 852-857 (1977)].
# [29] = cited from earlier work
# [30] = mcilvaine's buffer, pH 4.0, Mcllvaine's buffer
# [31] = mcilvaine's buffer, pH 6.0, Mcllvaine's buffer
# [32] = mcilvaine's buffer, pH 7.0, Mcllvaine's buffer
# [33] = pH 10.0, 0.1M sodium carbonate-sodium hydrogen carbonate buffer
# [34] = organic solvents: acetone, chloroform, ethyl acetate, petroleum ether
MIC [1] [µg/mL],MIC [2] [µg/mL],MIC [3] [µg/mL],MIC [4] [µg/mL],MIC [5] [µg/mL],MIC [6] [µg/mL],MIC [7] [µg/mL],MIC [8] [µg/mL],MIC [9] [µg/mL],MIC [10] [µg/mL],MIC [11] [µg/mL],MIC [12] [µg/mL],MIC [13] [µg/mL],MIC [14] [µg/mL],MIC [15] [µg/mL],MIC [16] [µg/mL],MIC [17] [µg/mL],MIC [18] [µg/mL],MIC [19] [µg/mL],MIC [20] [µg/mL],SMILES,other results
≤ 0.025,> 100,> 100,6.25,100,> 100,> 100,> 100,6.25,50,> 100,> 100,12.5,100,> 100,0.2,> 100,100,> 100,> 100,"CC1(C)S[C@@H]2[C@H](NC(=O)[C@H](N)c3ccccc3)C(=O)N2[C@H]1C(=O)O [AB-Pc, aminobenzyl penicillin, reference compound]",MIC [21]: 50 µg/mL; MIC [22]: 0.05 µg/mL; MIC [23]: 0.78 µg/mL
1.56,> 100,> 100,> 100,> 100,3.13,6.25,6.25,6.25,6.25,6.25,> 100,0.78,6.25,6.25,1.56,6.25,> 100,> 100,> 100,"CO[C@@]1(NC(=O)Cc2cccs2)C(=O)N2C(C(=O)O)=C(COC(N)=O)CS[C@@H]21 [CFX, cefoxitin, reference compound]",MIC [21]: 12.5 µg/mL; MIC [22]: 1.56 µg/mL; MIC [23]: 1.56 µg/mL
0.2,0.78,1.56,0.1,0.78,0.2,0.05,0.05,0.05,0.2,0.78,3.13,0.2,0.78,0.39,1.56,0.39,6.25,6.25,1.56,CC(=O)NC=C[S+]([O-])C1=C(C(=O)O)N2C(=O)C(C(C)(C)O)C2C1 (stereo not shown) [KA-6643-A],"half-life [24, 30]: 33 h; half-life [24, 31]: 144 h; half-life [24, 32]: 187 h; half-life ([24]; pH 7.8): 110 h; half-life [24, 33]: 2.8 h; Solubility in solvent [25, 34]: substantially insoluble; Solubility in solvent ([25]; water): Readily soluble; MIC [21]: 0.2 µg/mL; MIC [22]: 0.39 µg/mL; MIC [23]: 0.78 µg/mL; Diameter of inhibiting zone [26]: 16.0 mm; Diameter of inhibiting zone [27]: 18.0 mm; I50 value [28]: 0.5 ng/mL"
6.25,6.25,12.5,3.13,6.25,3.13,1.56,3.13,1.56,6.25,6.25,12.5,6.25,12.5,12.5,50,12.5,25,50,100,CC(=O)NC=C[S+]([O-])C1=C(C(=O)O)N2C(=O)C(C(C)(C)OS(=O)(=O)O)C2C1 (stereo not shown) [KA-6643-B],"half-life [24, 30]: 21.8 h; half-life [24, 31]: 210 h; half-life [24, 32]: 170 h; half-life ([24]; pH 7.8): 130 h; half-life [24, 33]: 7.9 h; Solubility in solvent [25, 34]: substantially insoluble; Solubility in solvent ([25]; water): Readily soluble; MIC [21]: 6.25 µg/mL; MIC [22]: 6.25 µg/mL; MIC [23]: 6.25 µg/mL; I50 value [28]: 12.8 ng/mL"
,,,,,,,,,,,,,,,,,,,,CC(=O)N/C=C/[S+]([O-])C1=C(C(=O)O)N2C(=O)C(C(C)OS(=O)(=O)O)C2C1 (stereo not shown) [MM-4550],half-life period t1/2 ([29]; pH 4): 5.5 h; half-life period t1/2 ([29]; pH 6): 18 h; half-life period t1/2 ([29]; pH 7): 10.5 h; half-life period t1/2 ([29]; pH 7.8): 8.5 h; half-life period t1/2 ([29]; pH 10): 19 h
